Experimental findings from ChEMBL document CHEMBL1201862, “PubChem BioAssay data set” (2004) are described below.

Assay in all cases: growth of human tumour cells (NCI), 48 h
In assay [1] the test system is A498.
Assay [2] deals with CCRF-CEM.
Assay [3] concerns COLO 205.
The subject of assay [4] is DLD-1.
Assay [5] has as its system DMS-114.
In assay [6] the test system is DMS-273.
Assay [7] concerns HCC 2998.
Assay [8] relates to HCT-116.
In assay [9] the test system is MOLT-4.
Assay [10] has as its system NCI-H226.
The subject of assay [11] is SF-268.
Assay [12] relates to SF-295.
Assay [13] relates to SNB-78.
Assay [14] deals with M14.
In assay [15] the test system is RPMI-8226.
In assay [16] the test system is SR.

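How tested: cells in 96-well plates exposed to compound for 48 hours at five concentrations. GI50 is the concentration that inhibits growth by half.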 Active and inactive are the calls of the source. Cut-off read from the data, not from the text of the source: active = GI50 up to about 1.1 µM and inactive = higher.

Take `O=[N+]([O-])c1ccc(/C=C/c2ccc(/N=N/c3ccc(/C=C/c4ccc([N+](=O)[O-])cc4S(=O)(=O)O)c(S(=O)(=O)O)c3)cc2S(=O)(=O)O)c(S(=O)(=O)O)c1`: the GI50 in assay [1] was > 100 µM (inactive); in assay [2] it was > 100 µM (inactive); in assay [3], > 100 µM (inactive); in [4], > 100 µM (inactive); in assay [5] it was > 100 µM (inactive); in assay [6], > 71 µM (inactive). The GI50 is 43.6 µM (inactive) in [7]; > 100 µM (inactive) in assay [8]; > 100 µM (inactive) in assay [9]; > 100 µM (inactive) in [10]; > 100 µM (inactive) in assay [11]; > 100 µM (inactive) in [12]. Moreover, the GI50 in [13] was > 83.6 µM (inactive).

Turning to `CC(C)(C)c1ccc(OCCOCCOc2ccc(C(C)(C)C)cc2S(N)(=O)=O)c(S(N)(=O)=O)c1`, the GI50 in [1] is 20.3 µM (inactive); in [2] it was > 100 µM (inactive); in assay [3] it was > 100 µM (inactive); in assay [4], 99.5 µM (inactive); in assay [5], 16.9 µM (inactive); in [6] it was 72.6 µM (inactive). For the same compound, the GI50 in [7] was > 100 µM (inactive); in assay [8], 17.4 µM (inactive); in [14], 61.4 µM (inactive); in assay [9], 4.46 µM (inactive); in assay [10], 40.7 µM (inactive); in [15], 7.55 µM (inactive). Moreover, the GI50 in [11] was 97.3 µM (inactive); in assay [12] it was > 100 µM (inactive); in [13], > 100 µM (inactive).

With `O=C(c1ccccc1)c1nnn(Cc2cccc(Cl)c2)c1C(=O)c1ccccc1`, the GI50 in assay [2] is > 100 µM (inactive); in [3], 15 µM (inactive); in assay [4], > 100 µM (inactive); in assay [5] it was 78 µM (inactive); in assay [6] it was > 100 µM (inactive); in [7] it was 44 µM (inactive). Also, the GI50 in assay [8], in assay [14], in assay [9], in [10], in assay [15] and in assay [11] was > 100 µM (inactive) each time. Moreover, the GI50 in [12], in assay [13] and in [16] was > 100 µM (inactive) each time.

Turning to `Nc1nc2[nH]c(=O)cnc2c(=O)[nH]1` [ISOXANTHOPTERIN], the GI50 in assay [1], in assay [2], in assay [3], in assay [4], in [5] and in assay [6] was > 125 µM (inactive) each time. Further, the GI50 in assay [7], in assay [8], in [9], in assay [10], in [15] and in [11] was > 125 µM (inactive) throughout. For the same compound, the GI50 in [12] and in [13] was > 125 µM (inactive) throughout.

As to `CC(=O)NC1C(OCc2ccccc2)OC(CO)C(O)C1OC(C)C(=O)N[C@@H](C)C(=O)N[C@H](CCC(=O)OCCNc1c2ccccc2nc2cccc([N+](=O)[O-])c12)C(N)=O` (stereo not given in full), the GI50 in assay [1] is 0.00501 µM (active); in [2], 0.0189 µM (active); in assay [3], 0.00111 µM (active); in assay [4], 0.00139 µM (active); in assay [6] it was 0.0016 µM (active); in assay [7], 0.000681 µM (active). Moreover, the GI50 in assay [8] is 0.000195 µM (active); in [14], 0.00109 µM (active); in assay [9] it was 0.00385 µM (active); in assay [10], 0.00548 µM (active); in assay [15], 0.000782 µM (active); in assay [11], 0.00394 µM (active). Besides, the GI50 in assay [12] was 0.00427 µM (active); in assay [13], 0.0252 µM (active); in assay [16], 3.64e-05 µM (active).

`O=NN1C(c2ccccc2)C2CCCC(C2=O)C1c1ccccc1` (stereo not given): the GI50 in [1] is 34 µM (inactive); in assay [2], 28.3 µM (inactive); in [3], 17.5 µM (inactive); in [4], 43.3 µM (inactive); in [5], 32.5 µM (inactive); in [6] it was 23.8 µM (inactive). Besides, the GI50 in assay [7] is 16.6 µM (inactive); in [8] it was 25.5 µM (inactive); in [9], 27.1 µM (inactive); in [10], 25.1 µM (inactive); in [15], 22.3 µM (inactive); in assay [11], 49.8 µM (inactive). The GI50 in assay [12] is 30.8 µM (inactive); in assay [13] it was 40.3 µM (inactive).

Consider `CSc1nc2c(ncn2C2OC(CO)C(O)C(O)C2O)c(=O)n1C` (stereo not given), for which the GI50 in assay [1], in assay [2], in assay [3], in assay [4], in assay [5] and in assay [6] was > 100 µM (inactive) throughout. The GI50 in [7], in assay [8], in [9], in assay [10], in [15] and in assay [11] was > 100 µM (inactive) in each case. Also, the GI50 in assay [12] and in assay [13] was > 100 µM (inactive) each time.

Regarding `CC1CCC2(CC1)NN=c1s/c(=C\c3ccc(O)cc3)c(=O)n1N2` (stereo not given), the GI50 in assay [2], in [3], in [4], in assay [5], in [6] and in [7] was > 100 µM (inactive) each time. For the same compound, the GI50 in assay [8], in assay [14], in assay [9], in assay [10], in [15] and in assay [11] was > 100 µM (inactive) throughout. Further, the GI50 in assay [12] and in [13] was > 100 µM (inactive) throughout.

As for `CCC1=C(C[C@H]2NCCc3cc(OC)c(OC)cc32)C[C@H]2c3cc(OC)c(OC)cc3CCN2C1`, the GI50 in [1] was 0.0181 µM (active); in assay [4] it was 0.0296 µM (active); in assay [5], 0.0166 µM (active); in assay [6], 0.0274 µM (active); in [7] it was 0.0293 µM (active); in assay [8], 0.0173 µM (active). The GI50 in assay [14] was 0.0235 µM (active); in assay [9], 0.0128 µM (active); in [15], 0.021 µM (active); in [11], 0.0356 µM (active); in assay [12], 0.0331 µM (active); in [13] it was 0.0388 µM (active). Also, the GI50 in [16] was 0.0101 µM (active).

Consider `CN1CCCC2[C@@H]3CCC4c5nonc5CC[C@]4(C)C3CC[C@@]21C` (stereo not given in full), for which the GI50 is > 100 µM (inactive) in assay [3]; 51.1 µM (inactive) in assay [4]; > 100 µM (inactive) in [5]; 93.3 µM (inactive) in assay [6]; > 100 µM (inactive) in assay [8]; > 100 µM (inactive) in assay [9]. Also, the GI50 is > 100 µM (inactive) in [10]; > 100 µM (inactive) in [15]; 43.2 µM (inactive) in [12]; > 100 µM (inactive) in [13]; > 100 µM (inactive) in assay [16].

Turning to `CC(C)=CC1CC(=[N+]=[N-])C(=O)C1(C)C` (stereo not given), the GI50 in [1] was > 100 µM (inactive); in assay [2] it was > 53 µM (inactive); in assay [3], > 100 µM (inactive); in assay [4], > 100 µM (inactive); in assay [5], > 58.3 µM (inactive); in [7], > 100 µM (inactive). The GI50 is > 100 µM (inactive) in assay [8]; > 100 µM (inactive) in assay [14]; > 100 µM (inactive) in [9]; > 100 µM (inactive) in [10]; > 51.8 µM (inactive) in assay [15]; > 100 µM (inactive) in assay [11]. Besides, the GI50 was > 100 µM (inactive) in assay [12], > 100 µM (inactive) in assay [13] and 23.1 µM (inactive) in [16].

As for `[O-]c1c2c(nn1-c1ccc(F)cc1)c1ccccc1c[n+]2Cc1ccccc1`, the GI50 in assay [1] was 30.9 µM (inactive); in assay [2], 0.401 µM (active); in assay [3], 1.76 µM (inactive); in assay [4], 11 µM (inactive); in assay [5] it was 10.8 µM (inactive); in assay [7] it was 11.7 µM (inactive). Moreover, the GI50 in [8] is 16.4 µM (inactive); in [14], 1.79 µM (inactive); in assay [9] it was 5.45 µM (inactive); in assay [10] it was 16.6 µM (inactive); in [15], 3.34 µM (inactive); in assay [11] it was 18.9 µM (inactive). In addition, the values for the GI50 in assay [12], in assay [13] and in assay [16] were 14.6 µM (inactive), 1.96 µM (inactive) and 1.55 µM (inactive), respectively.

For the compound `Cn1c(=O)c2ccccc2c2nc3ccccc3nc21`, the GI50 in assay [3], in [5], in assay [6], in [7], in assay [8] and in assay [9] was > 100 µM (inactive) each time. Also, the GI50 in assay [10] is > 100 µM (inactive); in [15] it was > 100 µM (inactive); in assay [11] it was > 100 µM (inactive); in [12] it was 59.2 µM (inactive); in assay [13], 68.7 µM (inactive); in [16] it was > 100 µM (inactive).

Turning to `COC(=O)c1c(-c2ccccc2)cc2c3cc(-c4ccccc4)c(C(=O)OC)n3c3ccccc3n12`, the GI50 in assay [1] is > 100 µM (inactive); in assay [2], > 100 µM (inactive); in assay [3], > 100 µM (inactive); in assay [4] it was > 100 µM (inactive); in assay [5], > 100 µM (inactive); in assay [6], 79.3 µM (inactive). The GI50 in assay [7], in [8], in [14], in assay [9], in [10] and in assay [15] was > 100 µM (inactive) in each case. Also, the GI50 in [11], in [12] and in assay [13] was > 100 µM (inactive) in each case.
